Experimental data published in patent US11802120B2, “Fused cyclic urea derivatives as CRHR2 antagonist” (RaQualia Pharma Inc., priority 2018, dated 2023).
pIC50: −log10 of the molar value.

Molecular target: T1, human CRHR2-alpha (Homo sapiens, UniProt Q13324)
T1 sequence (Q13324 1-411): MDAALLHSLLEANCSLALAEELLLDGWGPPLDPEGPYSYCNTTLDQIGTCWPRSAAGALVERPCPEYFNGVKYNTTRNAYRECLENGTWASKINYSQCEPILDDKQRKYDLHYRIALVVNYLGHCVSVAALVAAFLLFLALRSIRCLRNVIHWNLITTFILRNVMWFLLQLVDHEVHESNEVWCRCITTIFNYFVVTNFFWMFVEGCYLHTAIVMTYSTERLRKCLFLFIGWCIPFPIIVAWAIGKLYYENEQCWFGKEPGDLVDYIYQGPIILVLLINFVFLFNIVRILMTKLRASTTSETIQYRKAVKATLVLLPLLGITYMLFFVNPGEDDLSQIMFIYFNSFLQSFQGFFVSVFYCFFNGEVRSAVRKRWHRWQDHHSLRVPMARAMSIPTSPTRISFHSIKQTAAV
Assay: cAMP functional assay for human CRHR2 (LANCE Ultra cAMP, TR-FRET)
Format: cell-based
Details: CHO-K1 cells expressing human CRHR2-alpha, agonist human urocortin2 at EC80, cAMP; read-out: IC50 against CRHR2
Outline: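 Inhibition of agonist-driven cAMP was assessed in recombinant CHO-K1 cells at 25° C, using 30 min compound pretreatment and 30 min stimulation with EC80 human urocortin2 (CRHR2) or CRF (CRHR1). IC50 came from dose-response fitting.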

| pIC50 | Structure (SMILES) |
| --- | --- |
| > 6.52 | O=C(N[C@H]1CC[C@H](Cn2c(=O)n(-c3ccc(NC4CC4)nc3)c3ccccc32)CC1)c1cc(Cl)cnc1C(F)F [Example 543, 5-chloro-N-((1r,4r)-4-((3-(6-(cyclopropylamino)pyridin-3-yl)-2-oxo-2,3-dihydro-1H-benzo[d]imidazol-1-yl)methyl)cyclohexyl)-2-(difluoro-methyl)nicotinamide] |
| > 6.52 | Cc1ncc(Cl)cc1C(=O)N[C@H]1CC[C@H](Cn2c(=O)n(-c3ccncc3C(F)(F)F)c3ccccc32)CC1 [Example 320, 5-chloro-2-methyl-N-((1r,4r)-4-((2-oxo-3-(3-(trifluoro-methyl)pyridin-4-yl)-2,3-dihydro-1H-benzo[d]imidazol-1-yl)methyl)cyclohexyl) nicotinamide] |
| > 6.52 | CCn1nc2ccccc2c1C(=O)N[C@H]1CC[C@H](Cn2c(=O)n(-c3ccc(C)nc3)c3ccccc32)CC1 [Example 38, 2-ethyl-N-((1r,4r)-4-((3-(6-methylpyridin-3-yl)-2-oxo-2,3-dihydro-1H-benzo[d]imidazol-1-yl)methyl)cyclohexyl)-2H-indazole-3-carboxamide] |
| > 6.52 | CCC(=O)Nc1ccc(-n2c(=O)n(C[C@H]3CC[C@H](NC(=O)c4cc(Cl)cnc4C(F)(F)F)CC3)c3ccccc32)cn1 [Example 643, 5-chloro-N-((1r,4r)-4-((2-oxo-3-(6-propionamido-pyridin-3-yl)-2,3-dihydro-1H-benzo[d]imidazol-1-yl)methyl)cyclohexyl)-2-(tri-fluoromethyl)nicotinamide] |
| > 6.52 | O=C(N[C@H]1CC[C@H](Cn2c(=O)n(-c3ccc4ccncc4c3)c3ccccc32)CC1)c1cc(Cl)cnc1C(F)F [Example 423, 5-chloro-2-(difluoromethyl)-N-((1r,4r)-4-((3-(isoquinolin-7-yl)-2-oxo-2,3-dihydro-1H-benzo[d]imidazol-1-yl)methyl)cyclohexyl)nicotinamide] |

The next lines start with the compound.

| Structure (SMILES) | pIC50 |
| --- | --- |
| Cc1cc(-n2c(=O)n(C[C@H]3CC[C@H](NC(=O)c4cc(Cl)cnc4C)CC3)c3ccccc32)cnc1C [Example 119, 5-chloro-N-((1r,4r)-4-((3-(5,6-dimethylpyridin-3-yl)-2-oxo-2,3-dihydro-1H-benzo[d]imidazol-1-yl)methyl)cyclo-hexyl)-2-methylnicotinamide] | > 6.52 |
| O=C(N[C@H]1CC[C@H](Cn2c(=O)n(-c3ccc(NC4COC4)nc3)c3ccccc32)CC1)c1cc(Cl)cnc1C(F)F [Example 481, 5-chloro-2-(difluoromethyl)-N-((1r,4r)-4-((3-(6-(oxetan-3-ylamino)pyridin-3-yl)-2-oxo-2,3-dihydro-1H-benzo [d]imidazol-1-yl)methyl)cyclohexyl)nicotinamide] | > 6.52 |
| Cn1cc(-c2cncc(-n3c(=O)n(C[C@H]4CC[C@H](NC(=O)c5cc(Cl)cnc5C(F)F)CC4)c4ccccc43)c2)cn1 [Example 682, 5-chloro-2-(difluoromethyl)-N-((1r,4r)-4-((3-(5-(1-methyl-1H-pyrazol-4-yl)pyridin-3-yl)-2-oxo-2,3-dihydro-1H-benzo[d]imidazol-1-yl)methyl)cyclohexyl)nicotinamide] | > 6.52 |
| Cc1ncc(Cl)cc1C(=O)N[C@H]1CC[C@H](Cn2c(=O)n(-c3ccccc3C#N)c3ccccc32)CC1 [Example 219, 5-chloro-N-((1r,4r)-4-((3-(2-cyanophenyl)-2-oxo-2,3-dihydro-1H-benzo[d]imidazol-1-yl)methyl)cyclohexyl)-2-methylnicotinamide] | > 6.52 |
| Cc1csc(CNC(=O)c2ccc(-n3c(=O)n(C[C@H]4CC[C@H](NC(=O)c5cc(Cl)cnc5C)CC4)c4ccccc43)cn2)n1 [Example 180, 5-(3-(((1r,4r)-4-(5-chloro-2-methylnicotinamido)cyclo-hexyl)methyl)-2-oxo-2,3-dihydro-1H-benzo[d]imidazol-1-yl)-N-((4-methylthiazol-2-yl)methyl)picolinamide] | > 6.52 |
